Assay results as given in US12509460B2 (Skyhawk Therapeutics, Inc., priority 2019, dated 2025).
Read-outs that look alike come from different tables or passages of the source.

Experiments:
[1] = tested on: Huntingtin (HTT) transcripts, cryptic exon within intron 49, in GM04724 (CAG 70/20) Huntington's disease patient lymphoblasts; assay: Quantitative splicing assay (HTT), qPCR; format: cell-based, human; conditions: 24 h, qPCR, read-out: HTT Splicing: E49-50 EC50
Procedure, shortened: (§1)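 TaqMan qPCR on cell-lysate cDNA quantifies cryptic-exon inclusion from HTT intron 49. Lymphoblasts plated at 50,000 cells/well had received compound for 24 h, 0.15 nM-2.5 uM range, 0.1% DMSO.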

[2] = tested on: SMN FL and SMN Δ7 in spinal muscular atrophy (SMA) patient fibroblasts (GM03813, Coriell); assay: Quantitative splicing assay (SMN), qPCR; format: cell-based, human; conditions: Homo sapiens, Fibroblast, SMA patient fibroblasts GM03813, 24 h, qPCR, read-out: SMN2 Splicing FL EC50
Experimental: Spinal muscular atrophy (SMA) patient fibroblasts (GM03813, Coriell) are plated in 96-well plates at 50,000 cells/well. […] Treated cells are lysed and cDNA synthesized using the Fast Advanced Cells-to-Ct kit (Thermofisher A35378) according to the manufacturer's instructions. 2 μL of each cDNA are used in qPCR reactions. […] Reactions are run in a Quant Studio 6 qPCR instrument with default settings.

[3] = tested on: mHTT protein in GM04724 (CAG 70/20) Huntington's disease patient lymphoblast cells; assay: mHTT protein assay, 2B7-MW1 assay via Mesoscale Discovery (MSD); format: cell-based, human
Procedure, shortened: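 Signal from the 2B7-MW1 antibody pair on MSD, rising with polyQ length and smaller HTT fragments, measured mHTT after 48 h compound exposure (0.6 nM–10 μM) in GM04724 cells. A parallel replicate plate gave CellTiter Glo viability.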

[4] = tested on: SMN protein in spinal muscular atrophy (SMA) patient fibroblasts (GM03813, Coriell); assay: SMN protein assay, Mesoscale Discovery (MSD); format: cell-based, human; conditions: for EC50: read-out: SMN2 protein EC50
Procedure, shortened: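 Absolute SMN levels were quantified by MSD against an SMN protein standard curve (1 μg/ml to 19.5 pg/ml) run on each plate. Samples were lysates of GM03813 patient fibroblasts (7000 cells/well) treated 48 hours with compound doses from 2.5 μM down to 0.6 nM.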

[5] = tested on: MDR1-MDCK cell monolayers; assay: Blood-brain-barrier (BBB) penetration potential via MDCK-MDR1 permeability assay; conditions: for MDCK-MDR1: % Recov A-B / MDCK-MDR1: Papp A-B: A-B direction; for MDCK-MDR1: % Recov B-A / MDCK-MDR1: Papp B-A: B-A direction; for MDCK-MDR1: Efflux: efflux ratio
[6] = Quantitative splicing assay (HTT), qPCR; format: cell-based, human; conditions: Homo sapiens; GM04724 lymphoblasts, 24 h, qPCR; read-out: HTT Splicing: E49-50 EC50
Procedure, shortened: as §1

[7] = tested on: MDR1-MDCK cell monolayers; conditions: dog, MDCK-MDR1, 120 min, 5 μM, pH 7.4
MDR1 (P-gp) [8] = assay: in vitro; conditions: dog, MDCK-MDR1, pH 7.4
MDR1 [9] = assay: in vitro; conditions: dog, MDCK-MDR1, pH 7.4
MDR1 (P-gp) [10] = assay: Blood-brain-barrier (BBB) penetration potential via MDCK-MDR1 permeability assay; conditions: dog
MDR1 [11] = assay: as above; conditions: dog, MDCK-MDR1, pH 7.4, MDCK-MDR1: Efflux, efflux ratio
[12] = GM04724 Huntington's disease patient lymphoblasts
[13] = SMA patient fibroblasts GM03813, 48 hours, MSD

CN(c1ccc(-c2ccc(-c3cn[nH]c3)cc2O)nn1)C1CC2COCC(N2)C1F (centres unmarked) [Compound 8B]
EC50 [1]: 0.01 to 15 nM | EC50 ([2]; 24 h): 16 to 50 nM | EC50 [3, 12]: 0.01 to 15 nM | EC50 [4, 13]: 16 to 50 nM | MDCK-MDR1: % Recov A-B [5]: 84% | MDCK-MDR1: Papp A-B [5]: 2.04 10^−6, cm/s | MDCK-MDR1: % Recov B-A [5]: 98% | MDCK-MDR1: Papp B-A [5]: 39.1 10^−6, cm/s | MDCK-MDR1: Efflux [5]: 19

Cn1cnc2cc(-c3ccc(N(C4CC4)[C@@H]4C[C@H]5CC[C@H](N5)[C@@H]4F)nn3)c(O)cc2c1=O [Compound 56A, 7-(6-(cyclopropyl((1S,2S,3R,5R)-2-fluoro-8-azabicyclo[3.2.1]octan-3-yl)amino)pyridazin-3-yl)-6-hydroxy-3-methylquinazolin-4(3H)-one]
EC50 [6]: 10 to 501 nM | EC50 [3, 12]: 101 to 500 nM | MDCK-MDR1: % Recov A-B [7]: 83% | MDCK-MDR1: % Recov B-A [7]: 83% | EC50 [4, 13]: 101 to 500 nM | Papp A→B at 120 min, 5 μM (MDR1 (P-gp) [8]): 9.2 nm/s | Papp B→A at 120 min, 5 μM (MDR1 (P-gp) [8]): 514 nm/s | efflux ratio at 120 min, 5 μM (MDR1 [9]): 56

CN(c1ccc(-c2ccc(-c3cn[nH]c3)cc2O)nn1)C1CC2COCC(N2)C1F (centres unmarked) [Compound 8A]
EC50 [1]: 16 to 50 nM | EC50 [3, 12]: 0.01 to 15 nM | EC50 [4, 13]: 101 to 500 nM | Papp A→B at 120 min, 5 μM (MDR1 (P-gp) [10]; MDCK-MDR1, pH 7.4, MDCK-MDR1: Papp A-B, A-B direction): 16.7 nm/s | Papp B→A at 120 min, 5 μM (MDR1 (P-gp) [10]; MDCK-MDR1, pH 7.4, MDCK-MDR1: Papp B-A, B-A direction): 593 nm/s | MDCK-MDR1: % Recov A-B [5]: 87% | MDCK-MDR1: % Recov B-A [5]: 93% | efflux ratio at 120 min, 5 μM (MDR1 [11]): 36

CNC(=O)c1cc(O)c(-c2ccc(N(C)[C@@H]3C[C@H]4CC[C@H](N4)[C@@H]3F)nn2)cc1F [Compound 47A, 2-fluoro-4-(6-(((1S,2S,3R,5R)-2-fluoro-8-azabicyclo[3.2.1]octan-3-yl)(methyl)amino)pyridazin-3-yl)-5-hydroxy-N-methylbenzamide]
EC50 [2]: 501 to 10000 nM | EC50 [3, 12]: 101 to 500 nM | MDCK-MDR1: % Recov A-B [7]: 98% | MDCK-MDR1: % Recov B-A [7]: 108% | EC50 [4, 13]: 101 to 500 nM | Papp A→B at 120 min, 5 μM (MDR1 (P-gp) [8]): 14.5 nm/s | Papp B→A at 120 min, 5 μM (MDR1 (P-gp) [8]): 493 nm/s | efflux ratio at 120 min, 5 μM (MDR1 [9]): 34

CN(c1ccc(-c2cc(C#N)ccc2O)nn1)[C@H]1C[C@@H]2CC[C@@H](N2)[C@H]1F (single isomer, unassigned) [Compound 70B]
EC50 [6]: 10 to 501 nM | EC50 [3, 12]: 101 to 500 nM | MDCK-MDR1: % Recov A-B [7]: 95% | MDCK-MDR1: % Recov B-A [7]: 100% | SMN2 protein EC50 [4, 13]: E (501 ≤ E ≤ 10.000) | Papp A→B at 120 min, 5 μM (MDR1 (P-gp) [8]): 38.4 nm/s | Papp B→A at 120 min, 5 μM (MDR1 (P-gp) [8]): 581 nm/s | efflux ratio at 120 min, 5 μM (MDR1 [9]): 15

CN(c1ccc(-c2ccc(-c3cnn(C)c3)cc2O)nn1)C1CC2COCC(N2)C1F (single isomer, unassigned) [Compound 80B]
EC50 [1]: 51 to 100 nM | EC50 [3, 12]: 16 to 50 nM | EC50 [4, 13]: 101 to 500 nM | MDCK-MDR1: % Recov A-B [5]: 76% | MDCK-MDR1: Papp A-B [5]: 6.01 10^−6, cm/s | MDCK-MDR1: % Recov B-A [5]: 87% | MDCK-MDR1: Papp B-A [5]: 40.8 10^−6, cm/s | MDCK-MDR1: Efflux [5]: 7

CN(c1ccc(-c2cc3ccn(C)c(=O)c3cc2O)nn1)[C@H]1C[C@@H]2CC[C@H]([C@H]1F)N2C (single isomer, unassigned) [Compound 97B]
EC50 [6]: 101 to 500 nM | EC50 [3, 12]: 101 to 500 nM | MDCK-MDR1: % Recov A-B [7]: 85% | MDCK-MDR1: % Recov B-A [7]: 83% | EC50 [4, 13]: 101 to 500 nM | Papp A→B at 120 min, 5 μM (MDR1 (P-gp) [8]): 19.6 nm/s | Papp B→A at 120 min, 5 μM (MDR1 (P-gp) [8]): 531 nm/s | efflux ratio at 120 min, 5 μM (MDR1 [9]): 27

CN(C)C(=O)c1cc(O)c(-c2ccc(N(C)[C@H]3C[C@@H]4CC[C@@H](N4)[C@H]3F)nn2)cc1F (single isomer, unassigned) [Compound 53B]
mHTT protein EC50 [3, 12]: E (501 ≤ E ≤ 10.000) | MDCK-MDR1: % Recov A-B [7]: 100% | MDCK-MDR1: % Recov B-A [7]: 112% | SMN2 protein EC50 [4, 13]: E (501 ≤ E ≤ 10.000) | Papp A→B at 120 min, 5 μM (MDR1 (P-gp) [8]): 2.7 nm/s | Papp B→A at 120 min, 5 μM (MDR1 (P-gp) [8]): 418 nm/s | efflux ratio at 120 min, 5 μM (MDR1 [9]): 153

CN(c1ccc(-c2ccc(Oc3nccn3C)cc2O)nn1)[C@H]1C[C@@H]2CC[C@@H](N2)[C@H]1F (single isomer, unassigned) [Compound 123B]
mHTT protein EC50 ([3]; GM04724 (CAG 70/20) Huntington's disease patient lymphoblasts): E (501 ≤ E ≤ 10.000) | MDCK-MDR1: % Recov A-B [7]: 92% | MDCK-MDR1: % Recov B-A [7]: 102% | EC50 ([4]; SMA patient fibroblasts (GM03813), 48 hours): 101 to 500 nM | Papp A→B at 120 min, 5 μM (MDR1 (P-gp) [8]): 6.6 nm/s | Papp B→A at 120 min, 5 μM (MDR1 (P-gp) [8]): 587 nm/s | efflux ratio at 120 min, 5 μM (MDR1 [9]): 89
